Measurements published in PubChem BioAssay (NCI).
Values joined by “and” are separate entries in the source; they are usually repeats but may differ in a detail not shown here. Equal values may be shown once.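 Results reflect a 48-hour exposure of cells in 96-well plates to compound at five concentrations. GI50 = concentration required for 50% inhibition of growth. TGI marks complete inhibition of growth.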

Assays:
Assay in all cases: NCI anticancer screen, dose series, 48 h
SN12C renal = system: SN12C renal
COLO 205 colon = system: COLO 205 colon
HT29 colon = system: HT29 colon
HL-60(TB) leukemia = system: HL-60(TB) leukemia
HOP-62 NSCLC = system: HOP-62 NSCLC
TK-10 renal = system: TK-10 renal
OVCAR-8 ovarian = system: OVCAR-8 ovarian
UACC-257 melanoma = system: UACC-257 melanoma
SNB-19 CNS = system: SNB-19 CNS
MALME-3M melanoma = system: MALME-3M melanoma

SMILES	GI50 (SN12C renal)	TGI (SN12C renal) [µM]	GI50 (COLO 205 colon)	TGI (COLO 205 colon)	GI50 (HT29 colon) [µM]	TGI (HT29 colon) [µM]	GI50 (HL-60(TB) leukemia) [µM]	TGI (HL-60(TB) leukemia) [µM]	GI50 (HOP-62 NSCLC)	TGI (HOP-62 NSCLC)	GI50 (TK-10 renal)	TGI (TK-10 renal)	GI50 (OVCAR-8 ovarian)	TGI (OVCAR-8 ovarian) [µM]	GI50 (UACC-257 melanoma) [µM]	TGI (UACC-257 melanoma) [µM]	GI50 (SNB-19 CNS)	TGI (SNB-19 CNS) [µM]	GI50 (MALME-3M melanoma)	TGI (MALME-3M melanoma)
CCNCCNc1cc(-c2ccc(C(F)(F)F)cc2)c(C#N)c2nc3cc(Cl)c(Cl)cc3n12	1.77 µM	3.46	1.68 µM	3.22 µM	1.64	3.08	0.308	1.01	1.96 µM	3.56 µM	2.38 µM	3.87 µM	1.74 µM	3.41	1.9	3.39	1.88 µM	3.65		
Cc1sc2c(c1C)C(c1ccc(Cl)cc1)=N[C@@H](CC(=O)NCCCN1CCN(C)CC1)c1nnc(C)n1-2	7.36 µM	> 100	0.0995 µM	> 100 µM	0.198	> 100	0.0583	5.7	0.352 µM	> 100 µM			4.96 µM	> 100	3.26	> 100	0.987 µM	> 100	0.992 µM	> 100 µM
C=CC(=O)Nc1cccc(Oc2nc(Nc3ccc(N4CCN(C)CC4)cc3OC)ncc2Cl)c1	1.84 µM	8.31	2.28 µM	5.07 µM	2.08	4.53			3.01 µM	12.1 µM	0.513 µM	1.86 µM	2.08 µM	8.45	1.62	3.17	3.63 µM	16.7		
COC12OCCN(C)C1=CC(=O)C1(C)N=NCC12 (stereo not given)		> 100		> 100 µM		> 100						> 100 µM		> 100		> 100				> 100 µM
CC(C)C(=O)c1c(C(F)(F)F)n([O-])c2ccccc2[n+]1=O	1.77 µM	3.97	1.31 µM	2.97 µM	9.43	> 36.4			1.78 µM	3.49 µM	0.59 µM	2.07 µM	2.14 µM	> 20.5	2.74	7.8	3.51 µM	25.8	0.654 µM	2.03 µM
CN1CCN(CCCN2c3ccccc3Sc3ccc(Cl)cc32)CC1	5.83 µM and 56.8 µM	12.8	4.37 µM and 36.6 µM	11.6 µM and 51.1 µM			8.85	17.9	6.32 µM and 48.5 µM	13.6 µM and 85.6 µM	7.18 µM and 51.8 µM	14.1 µM and 89 µM	7.39 µM and 42.8 µM	14.8			7.05 µM and 60.7 µM	14.3	6.01 µM and 39.7 µM	14.3 µM and 55.9 µM
CC(C)c1ccc(/C=C/c2cc(C(=O)NNC(=O)NC3CCCCC3)nc(=S)[nH]2)cc1		> 100		> 100 µM		> 100				> 100 µM		> 100 µM		> 100		> 100		> 100		> 100 µM
CCOC(=O)c1cc(NS(=O)(=O)c2ccc(C)cc2)cc(C(=O)OCC)c1	78.1 µM	> 100	36.1 µM	> 100 µM	82.7	> 100	26.5	> 100	79.6 µM	> 100 µM	> 100 µM	> 100 µM			45.5	> 100	76.1 µM	> 100	> 100 µM	> 100 µM
O=C1c2cc(F)ccc2-c2c1c1ccc([N+](=O)[O-])cc1c(=O)n2CCCBr	27.4 µM	> 100	46.8 µM	> 100 µM	19.6	> 100			2.28 µM	8.64 µM	64.8 µM	> 100 µM	12.2 µM	> 100	13.1	82.6	8.13 µM	> 100	66.3 µM	> 100 µM
Cc1ccc(S(=O)(=O)OCCOCCOCCOCCOCCOS(=O)(=O)c2ccc(C)cc2)cc1		> 100		34.8 µM		> 100				> 100 µM		> 100 µM		88		77.8		> 100		> 100 µM
Cn1c(-c2c(N)n(Cc3ccc(F)cc3)c3nc(C#N)c(C#N)nc23)nc2ccccc21	2.09 µM	20	1.52 µM	6.26 µM			3.76	> 50	2.32 µM	22.5 µM	1.09 µM	3.77 µM	1.63 µM	11.8	4.51	> 50	12 µM	> 50		
C=C1C(=O)C2=CC1CCC(=O)C1(C)CCC(OC(C)=O)C(C)(C)C1CC2O (stereo not given)		12.5		2.47 µM		10.1				22.8 µM		26.5 µM		16.5		17		15		18.1 µM
COc1ccc2c(c1)[n+]([O-])c(/C(C)=N/NC(=O)c1ccccc1O)c(C)[n+]2[O-]		> 100				> 100		> 100		> 100 µM		> 100 µM		> 100		> 100		> 100		> 100 µM
COc1ccc2nc3cccc([N+](=O)[O-])c3c(NC(C)CN(C)C)c2c1 (stereo not given)	2.67 µM	9.6	1.84 µM	6.89 µM	1.63	6.8	2.67		1.18 µM	2.96 µM	2.2 µM	9.59 µM	1.54 µM	7.64	2.67	7.02	2.63 µM	7.91		
COC(=O)C1[C@H](c2ccc3c(c2)OCO3)OC(=O)[C@]1(C(=O)OC)C(=O)c1ccc(OC)c(OC)c1 (stereo not given in full)		> 100		> 100 µM		> 100		55.2		> 100 µM		> 100 µM		> 100		> 100				> 100 µM
O=[N+]([O-])C=C1c2ccccc2-c2ccccc21		35.7		3.33 µM		37.3		23.7		31.3 µM		32.3 µM		34.2		33.7		51.8		
CCOC(=O)CN(c1ccccc1)c1nc(=[N+](C)C)ss1		36.7		15.4 µM				48.4		> 100 µM		> 100 µM		70.1		96		> 100		70.4 µM
NCCSC(c1ccccc1)(c1ccccc1)c1ccccc1	0.739 µM	11.7	0.435 µM	1.69 µM	1.95	4.23	0.879	3.03	2.43 µM	14.2 µM			0.989 µM	7	1.13	2.68	5.36 µM	20.1		

SMILES	GI50 (SN12C renal)	TGI (SN12C renal) [µM]	GI50 (COLO 205 colon)	TGI (COLO 205 colon)	GI50 (HT29 colon) [µM]	TGI (HT29 colon) [µM]	GI50 (HL-60(TB) leukemia) [µM]	TGI (HL-60(TB) leukemia) [µM]	GI50 (HOP-62 NSCLC)	TGI (HOP-62 NSCLC)	GI50 (TK-10 renal)	TGI (TK-10 renal)	GI50 (OVCAR-8 ovarian)	TGI (OVCAR-8 ovarian) [µM]	GI50 (UACC-257 melanoma) [µM]	TGI (UACC-257 melanoma) [µM]	GI50 (SNB-19 CNS)	TGI (SNB-19 CNS) [µM]	GI50 (MALME-3M melanoma)	TGI (MALME-3M melanoma)
CC(C)=NNC(=S)NC12CC3CC(CC(C3)C1)C2		> 100		> 100 µM		> 100		> 100		> 100 µM		> 100 µM		> 100		> 100		> 100		
O=C(c1ccccc1)c1nc2ccc(C(F)(F)F)cc2nc1N1CCN(c2ccccc2)CC1	36.2 µM	> 100	18.9 µM	51.9 µM			30.9	> 100	60.9 µM	> 100 µM	30.7 µM	74.7 µM	41.8 µM	> 100	94.9	> 100	71.5 µM	> 100	48.2 µM	> 100 µM
COc1cc2c(c(OC)c1OC)-c1c(c3ccc([N+](=O)[O-])cc3c(=O)n1CCCN)C2=O	4 µM	11.5	8.72 µM	> 50 µM					0.937 µM	1.73 µM	9.89 µM	18.7 µM	1.79 µM	6.42	8.22	17			0.952 µM	1.92 µM
N#CCc1nnc(N)o1		> 100						> 100				> 100 µM				> 100		> 100		> 100 µM
CC(=O)OCCCC#CC#Cc1cccc(=O)o1	19 µM	39.7	19.4 µM	41.8 µM	24.9	71.5			15.5 µM	30.4 µM	13 µM	26.4 µM	29.4 µM	86.4	23.8	55.6	25.6 µM	67.7		
CC1=C(C(=O)CC(=O)C(=O)Nc2ccc(C)c(C)c2)Sc2ccccc2N1		> 100		> 100 µM		> 100				> 100 µM		> 100 µM		> 100		> 100		> 100		> 100 µM
N#CC1=C(N)Oc2c(sc3c(Br)cccc23)C1c1ccc(Cl)cc1 (stereo not given)	2.88 µM	17.6	0.774 µM	2.72 µM	0.711	2.85	0.357	1.88	0.89 µM	6.42 µM	3.47 µM	12.8 µM	1.71 µM	8.29	1.73	22.7	0.822 µM	12.8		
C=C1C(=O)O[C@H]2[C@H]1CC/C(CNC(=O)/C=C/c1ccccc1F)=C\CC[C@@]1(C)O[C@@H]21	1.62 µM	4.41	1.4 µM	2.96 µM	1.22	3.08			3.89 µM	16.6 µM	1.66 µM	3.25 µM	2.95 µM	11.8	1.77	3.59	3.83 µM	14.4	1.54 µM	3.52 µM
NC(N)=N/N=C/c1c(-c2cccnc2)nc2sc(Cl)cn12									18 µM	31.9 µM	15.4 µM	29.3 µM	16.5 µM	38.7	20.4	40.5				
CN(C)CCNC(=O)c1ccc2oc3cc4ccccc4c(=O)n3c2c1	46.6 µM	> 100	32.1 µM	> 100 µM	28	> 100	30.4	> 100	> 100 µM	> 100 µM	21.6 µM	72.3 µM	23.1 µM	76.2	23.9	58	40.9 µM	> 100		
Oc1ccccc1/C=N\NC(=S)N/N=C/c1ccccc1O	3.09 µM	79.5	4.23 µM	18.9 µM	6.63	48.8	2.04	14.6	4.22 µM	> 100 µM	4.62 µM	53.3 µM	2.34 µM	51.1	2.6	16.6	2.94 µM	> 100		
O=c1cccc2n1CC1CNC[C@H]2C1		> 100		> 100 µM		> 100				> 100 µM		> 100 µM		> 100		> 100		> 100		> 100 µM
Cc1c2c(nn1-c1ccc(S(=O)(=O)NC(=S)NC(=O)c3ccccc3)cc1)-c1ccccc1CC2	34.4 µM	> 100	44.9 µM	> 100 µM	> 100	> 100	3.85	> 100	> 100 µM	> 100 µM	28.9 µM	78.5 µM	72.4 µM	> 100	10.7	47.4	96.4 µM	> 100		
C=C1CC2(CCS(=O)(=O)c3ccccc32)OC1=O (stereo not given)				9.33 µM		31.7		8.64		46.8 µM		26.7 µM				32.1		22.8		26.3 µM
c1ccc2c(CNCCCCCCCCNCc3cccc4ccccc34)cccc2c1		19.2		3.43 µM		3.35		4.64		30.1 µM		5.53 µM		3.5		3.29				3.41 µM
O=C(O)CN(c1ccc(F)cc1)S(=O)(=O)c1ccccc1		> 100		> 100 µM		> 100		> 100				> 100 µM		> 100		> 100		> 100		> 100 µM
OCC1CCCC1O (stereo not given)		> 100		> 100 µM		> 100		> 100				> 100 µM		> 100		> 100		> 100		> 100 µM
